Blank lines part the entries; values can stand above or below the compound they belong to.
Legend:
[1] = biological target: T1, STE20-like serine/threonine-protein kinase (Homo sapiens, UniProt Q9H2G2); test: Selectivity interaction (ScanMAX (DiscoverX)) EUB0000232b SLK; conditions: at 1 µM
[2] = biological target: T1, STE20-like serine/threonine-protein kinase; test: Selectivity interaction (ScanMAX (DiscoverX, competition-binding assay)) EUB0000232b SLK
[3] = test system: Epidermal growth factor receptor (Homo sapiens), P00533 [L858R]; test: (§1) Selectivity interaction (ScanMAX (DiscoverX)) EUB0000232b EGFR; conditions: at 1 µM
[4] = biological target: T2, Epidermal growth factor receptor (Homo sapiens, UniProt P00533); test: as §1; conditions: at 1 µM
T2 sequence (P00533 whole entry): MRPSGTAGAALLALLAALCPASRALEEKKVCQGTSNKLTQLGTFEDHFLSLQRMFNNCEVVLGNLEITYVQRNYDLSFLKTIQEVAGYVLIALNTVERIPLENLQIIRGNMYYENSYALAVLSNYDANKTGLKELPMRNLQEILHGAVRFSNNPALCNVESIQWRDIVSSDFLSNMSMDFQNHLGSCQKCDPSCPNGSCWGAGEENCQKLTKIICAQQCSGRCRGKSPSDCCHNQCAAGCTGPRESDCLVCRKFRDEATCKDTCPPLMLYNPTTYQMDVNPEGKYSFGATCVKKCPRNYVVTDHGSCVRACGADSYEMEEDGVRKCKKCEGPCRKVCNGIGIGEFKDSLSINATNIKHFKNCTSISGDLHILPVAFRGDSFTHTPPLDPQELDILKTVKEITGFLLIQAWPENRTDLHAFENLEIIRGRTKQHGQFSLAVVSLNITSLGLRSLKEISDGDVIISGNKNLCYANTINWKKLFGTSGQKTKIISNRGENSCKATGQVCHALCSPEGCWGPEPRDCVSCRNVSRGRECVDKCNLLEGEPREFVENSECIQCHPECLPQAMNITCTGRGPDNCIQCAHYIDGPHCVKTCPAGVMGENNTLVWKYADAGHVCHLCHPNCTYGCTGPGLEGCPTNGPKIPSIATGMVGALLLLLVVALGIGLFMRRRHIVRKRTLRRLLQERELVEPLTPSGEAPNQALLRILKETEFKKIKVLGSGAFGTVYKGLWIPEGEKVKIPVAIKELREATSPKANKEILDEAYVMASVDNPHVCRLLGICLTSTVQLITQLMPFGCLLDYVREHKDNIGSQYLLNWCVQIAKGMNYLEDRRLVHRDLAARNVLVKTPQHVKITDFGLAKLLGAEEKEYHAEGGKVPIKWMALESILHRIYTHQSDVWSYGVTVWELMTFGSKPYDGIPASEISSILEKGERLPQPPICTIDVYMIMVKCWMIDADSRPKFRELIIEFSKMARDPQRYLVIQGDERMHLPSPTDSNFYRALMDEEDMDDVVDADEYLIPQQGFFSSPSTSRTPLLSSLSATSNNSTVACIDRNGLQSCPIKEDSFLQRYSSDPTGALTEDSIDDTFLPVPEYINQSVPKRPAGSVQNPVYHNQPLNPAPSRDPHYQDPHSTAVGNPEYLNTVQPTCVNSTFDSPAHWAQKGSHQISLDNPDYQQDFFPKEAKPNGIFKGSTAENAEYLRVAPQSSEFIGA

[5] = biological target: T2, Epidermal growth factor receptor; test: Selectivity interaction (ScanMAX (DiscoverX, competition-binding assay)) EUB0000232b EGFR
[6] = biological target: T2, Epidermal growth factor receptor; test: as §1; conditions: at 1 µM; remark: listed apart in the source
[7] = biological target: T3, Tyrosine-protein kinase Lck (Homo sapiens, UniProt P06239); test: Selectivity interaction (ScanMAX (DiscoverX)) EUB0000232b LCK; conditions: at 1 µM
[8] = biological target: T3, Tyrosine-protein kinase Lck; test: Selectivity interaction (ScanMAX (DiscoverX, competition-binding assay)) EUB0000232b LCK
[9] = biological target: T4, Tyrosine-protein kinase SYK (Homo sapiens, UniProt P43405); test: Selectivity interaction (ScanMAX (DiscoverX)) EUB0000232b SYK; conditions: at 1 µM
[10] = biological target: T4, Tyrosine-protein kinase SYK; test: Selectivity interaction (ScanMAX (DiscoverX, competition-binding assay)) EUB0000232b SYK
[11] = biological target: 5-hydroxytryptamine receptor 1A (Homo sapiens, UniProt P08908); test: Selectivity interaction (GPCR panel (PDSP screen)) EUB0000705a HTR1A
[12] = biological target: T5, Alpha-1A adrenergic receptor (Homo sapiens, UniProt P35348); test: Selectivity interaction (GPCR panel (PDSP screen)) EUB0000705a ADRA1A
T5 sequence (P35348 whole entry): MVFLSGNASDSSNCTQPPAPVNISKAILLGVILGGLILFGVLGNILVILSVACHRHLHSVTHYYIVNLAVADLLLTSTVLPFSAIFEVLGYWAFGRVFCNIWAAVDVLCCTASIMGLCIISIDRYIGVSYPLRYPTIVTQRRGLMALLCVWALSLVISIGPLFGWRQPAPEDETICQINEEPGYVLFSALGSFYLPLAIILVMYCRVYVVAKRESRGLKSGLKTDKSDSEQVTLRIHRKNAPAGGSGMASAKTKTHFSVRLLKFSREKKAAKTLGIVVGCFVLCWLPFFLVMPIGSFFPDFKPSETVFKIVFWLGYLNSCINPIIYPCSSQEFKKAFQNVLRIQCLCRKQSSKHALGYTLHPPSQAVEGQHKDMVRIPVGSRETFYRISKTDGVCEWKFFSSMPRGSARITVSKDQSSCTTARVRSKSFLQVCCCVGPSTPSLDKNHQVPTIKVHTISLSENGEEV

[13] = biological target: T6, Alpha-1D adrenergic receptor (Homo sapiens, UniProt P25100); test: Selectivity interaction (GPCR panel (PDSP screen)) EUB0000705a ADRA1D
T6 sequence (P25100 whole entry): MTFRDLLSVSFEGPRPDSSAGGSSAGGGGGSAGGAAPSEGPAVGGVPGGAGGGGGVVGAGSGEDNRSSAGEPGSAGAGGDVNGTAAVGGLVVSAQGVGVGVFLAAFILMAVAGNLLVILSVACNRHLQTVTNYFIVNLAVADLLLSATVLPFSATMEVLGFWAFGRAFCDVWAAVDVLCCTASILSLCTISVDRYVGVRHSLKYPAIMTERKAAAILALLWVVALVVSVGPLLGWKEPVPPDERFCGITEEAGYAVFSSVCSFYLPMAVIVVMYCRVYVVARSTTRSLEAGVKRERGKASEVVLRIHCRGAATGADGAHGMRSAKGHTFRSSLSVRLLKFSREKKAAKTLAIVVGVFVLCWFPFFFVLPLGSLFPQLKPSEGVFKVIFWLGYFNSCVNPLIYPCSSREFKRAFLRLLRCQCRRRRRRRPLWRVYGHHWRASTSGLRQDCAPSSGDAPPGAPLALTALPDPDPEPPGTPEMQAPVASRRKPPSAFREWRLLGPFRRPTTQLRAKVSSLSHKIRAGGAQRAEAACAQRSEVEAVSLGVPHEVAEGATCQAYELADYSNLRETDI

[14] = biological target: T7, Alpha-2C adrenergic receptor (Homo sapiens, UniProt P18825); test: Selectivity interaction (GPCR panel (PDSP screen)) EUB0000705a ADRA2C
T7 sequence (P18825 whole entry): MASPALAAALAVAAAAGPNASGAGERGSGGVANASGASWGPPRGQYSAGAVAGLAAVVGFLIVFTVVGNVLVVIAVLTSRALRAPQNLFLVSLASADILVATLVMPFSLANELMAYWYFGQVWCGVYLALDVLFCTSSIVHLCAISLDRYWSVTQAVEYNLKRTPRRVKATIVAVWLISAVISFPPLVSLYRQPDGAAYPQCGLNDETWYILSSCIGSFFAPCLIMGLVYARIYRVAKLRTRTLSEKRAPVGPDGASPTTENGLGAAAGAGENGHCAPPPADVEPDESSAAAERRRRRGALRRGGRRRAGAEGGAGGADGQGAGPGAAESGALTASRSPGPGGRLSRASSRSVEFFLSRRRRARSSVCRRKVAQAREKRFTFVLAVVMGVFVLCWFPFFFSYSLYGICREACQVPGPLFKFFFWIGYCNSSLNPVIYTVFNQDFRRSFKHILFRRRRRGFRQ

[15] = biological target: Beta-3 adrenergic receptor (Homo sapiens, UniProt P13945); test: Selectivity interaction (GPCR panel (PDSP screen)) EUB0000705a ADRB3
Mu-type opioid receptor = Mu-type opioid receptor (Homo sapiens, UniProt P35372); test: Selectivity interaction (GPCR panel (PDSP screen)) EUB0000705a OPRM1
[16] = biological target: T8, Leucine-rich repeat serine/threonine-protein kinase 2 (Homo sapiens, UniProt Q5S007); test: Selectivity interaction (KinomeScan (DiscoverX)) EUB0000705a LRRK2; conditions: at 1 µM
[17] = biological target: T8, Leucine-rich repeat serine/threonine-protein kinase 2; test: Selectivity interaction (NanoBRET assay (HEK293T cells)) EUB0000705a LRRK2
[18] = biological target: T9, Serine/threonine-protein kinase 32C (Homo sapiens, UniProt Q86UX6); test: Selectivity interaction (ScanMAX (DiscoverX)) EUB0000285b STK32C; conditions: at 1 µM
T9 sequence (Q86UX6 whole entry): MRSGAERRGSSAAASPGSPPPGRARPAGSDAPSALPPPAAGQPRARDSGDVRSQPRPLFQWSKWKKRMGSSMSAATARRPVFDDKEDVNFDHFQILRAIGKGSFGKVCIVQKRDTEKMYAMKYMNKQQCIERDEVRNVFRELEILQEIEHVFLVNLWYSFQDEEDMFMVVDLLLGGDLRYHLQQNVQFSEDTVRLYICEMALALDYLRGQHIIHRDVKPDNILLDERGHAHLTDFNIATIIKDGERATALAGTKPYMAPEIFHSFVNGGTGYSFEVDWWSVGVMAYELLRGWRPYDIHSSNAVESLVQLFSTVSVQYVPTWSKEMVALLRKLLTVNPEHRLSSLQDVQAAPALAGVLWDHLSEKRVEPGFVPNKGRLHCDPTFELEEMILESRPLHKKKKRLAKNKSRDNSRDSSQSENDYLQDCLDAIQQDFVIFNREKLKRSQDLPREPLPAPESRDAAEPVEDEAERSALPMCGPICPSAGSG

[19] = biological target: T9, Serine/threonine-protein kinase 32C; test: Selectivity interaction (ScanMAX (DiscoverX, competition-binding assay)) EUB0000285b STK32C
[20] = biological target: Testis-specific serine/threonine-protein kinase 1 (Homo sapiens) (UniProt Q9BXA7); test: Selectivity interaction (ScanMAX (DiscoverX)) EUB0000285b TSSK1B; conditions: at 1 µM
[21] = biological target: Testis-specific serine/threonine-protein kinase 1 (Homo sapiens, UniProt Q9BXA7); test: Selectivity interaction (ScanMAX (DiscoverX, competition-binding assay)) EUB0000285b TSSK1B
[22] = biological target: Serine/threonine-protein kinase 4 (Homo sapiens) (UniProt Q13043); test: Selectivity interaction (ScanMAX (DiscoverX)) EUB0000285b STK4; conditions: at 1 µM
[23] = biological target: Serine/threonine-protein kinase 4 (Homo sapiens, UniProt Q13043); test: Selectivity interaction (ScanMAX (DiscoverX, competition-binding assay)) EUB0000285b STK4
[24] = biological target: T10, Serine/threonine-protein kinase PAK 3 (Homo sapiens, UniProt O75914); test: Selectivity interaction (ScanMAX (DiscoverX)) EUB0000285b PAK3; conditions: at 1 µM
[25] = biological target: T10, Serine/threonine-protein kinase PAK 3; test: Selectivity interaction (ScanMAX (DiscoverX, competition-binding assay)) EUB0000285b PAK3
[26] = biological target: T11, Leukocyte tyrosine kinase receptor (Homo sapiens, UniProt P29376); test: Selectivity interaction (ScanMAX (DiscoverX)) EUB0000285b LTK; conditions: at 1 µM
T11 sequence (P29376 whole entry): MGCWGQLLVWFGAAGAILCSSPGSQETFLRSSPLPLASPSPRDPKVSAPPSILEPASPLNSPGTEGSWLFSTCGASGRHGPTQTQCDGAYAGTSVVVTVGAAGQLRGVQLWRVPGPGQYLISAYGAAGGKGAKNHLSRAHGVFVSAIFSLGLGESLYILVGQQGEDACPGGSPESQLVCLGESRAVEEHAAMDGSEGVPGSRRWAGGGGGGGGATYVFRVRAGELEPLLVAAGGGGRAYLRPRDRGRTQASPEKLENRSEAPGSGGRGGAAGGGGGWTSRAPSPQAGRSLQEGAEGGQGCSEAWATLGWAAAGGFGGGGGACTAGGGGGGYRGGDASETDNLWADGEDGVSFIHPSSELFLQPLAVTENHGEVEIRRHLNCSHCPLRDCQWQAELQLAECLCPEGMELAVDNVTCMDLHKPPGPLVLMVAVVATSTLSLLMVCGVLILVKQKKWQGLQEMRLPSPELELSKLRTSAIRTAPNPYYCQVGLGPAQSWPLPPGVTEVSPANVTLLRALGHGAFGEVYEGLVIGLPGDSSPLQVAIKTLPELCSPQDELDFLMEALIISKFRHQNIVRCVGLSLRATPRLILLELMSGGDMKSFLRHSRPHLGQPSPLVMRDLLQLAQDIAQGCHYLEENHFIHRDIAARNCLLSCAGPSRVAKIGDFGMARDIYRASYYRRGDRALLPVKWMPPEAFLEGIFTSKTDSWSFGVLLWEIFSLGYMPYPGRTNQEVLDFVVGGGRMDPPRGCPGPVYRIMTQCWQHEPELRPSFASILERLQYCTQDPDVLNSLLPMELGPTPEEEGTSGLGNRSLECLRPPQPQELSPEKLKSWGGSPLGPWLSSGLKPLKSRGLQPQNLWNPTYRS

[27] = biological target: T11, Leukocyte tyrosine kinase receptor; test: Selectivity interaction (ScanMAX (DiscoverX, competition-binding assay)) EUB0000285b LTK
[28] = biological target: T12, Serine/threonine-protein kinase LATS1 (Homo sapiens) (UniProt O95835); test: Selectivity interaction (ScanMAX (DiscoverX)) EUB0000285b LATS1; conditions: at 1 µM
T12 sequence (whole entry): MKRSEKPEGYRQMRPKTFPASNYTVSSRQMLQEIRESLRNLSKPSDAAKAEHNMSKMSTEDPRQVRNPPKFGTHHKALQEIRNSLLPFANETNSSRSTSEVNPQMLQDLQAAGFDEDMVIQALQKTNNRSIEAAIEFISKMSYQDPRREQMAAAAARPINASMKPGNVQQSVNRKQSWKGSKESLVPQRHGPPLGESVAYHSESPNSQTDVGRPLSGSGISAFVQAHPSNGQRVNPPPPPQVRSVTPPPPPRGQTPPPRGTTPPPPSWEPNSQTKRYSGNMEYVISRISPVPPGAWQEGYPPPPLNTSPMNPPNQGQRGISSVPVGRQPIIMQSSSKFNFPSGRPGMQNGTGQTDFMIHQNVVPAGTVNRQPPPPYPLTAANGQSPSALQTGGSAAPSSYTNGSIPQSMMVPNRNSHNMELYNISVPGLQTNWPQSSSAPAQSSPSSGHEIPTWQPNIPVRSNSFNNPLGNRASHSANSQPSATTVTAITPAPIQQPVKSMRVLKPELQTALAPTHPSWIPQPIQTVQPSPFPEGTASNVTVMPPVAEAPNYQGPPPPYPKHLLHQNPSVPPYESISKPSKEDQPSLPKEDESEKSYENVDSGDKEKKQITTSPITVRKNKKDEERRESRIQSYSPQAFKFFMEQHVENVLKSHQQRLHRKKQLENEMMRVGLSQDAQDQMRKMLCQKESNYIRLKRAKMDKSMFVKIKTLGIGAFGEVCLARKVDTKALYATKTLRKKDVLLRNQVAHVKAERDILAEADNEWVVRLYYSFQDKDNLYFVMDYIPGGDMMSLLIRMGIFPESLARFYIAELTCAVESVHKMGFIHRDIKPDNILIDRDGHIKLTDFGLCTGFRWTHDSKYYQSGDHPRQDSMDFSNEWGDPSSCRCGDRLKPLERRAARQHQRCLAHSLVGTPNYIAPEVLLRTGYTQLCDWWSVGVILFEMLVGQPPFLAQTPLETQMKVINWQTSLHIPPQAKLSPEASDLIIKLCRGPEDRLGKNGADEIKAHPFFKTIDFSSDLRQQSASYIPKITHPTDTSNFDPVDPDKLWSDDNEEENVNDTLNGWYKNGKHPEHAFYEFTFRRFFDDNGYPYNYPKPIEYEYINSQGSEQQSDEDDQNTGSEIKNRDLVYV

[29] = biological target: Serine/threonine-protein kinase LATS1 (Homo sapiens, UniProt O95835); test: Selectivity interaction (ScanMAX (DiscoverX, competition-binding assay)) EUB0000285b LATS1
[30] = biological target: T13, Calcium/calmodulin-dependent protein kinase type 1B (Homo sapiens, UniProt Q6P2M8); test: Selectivity interaction (KinomeScan (DiscoverX)) EUB0000312b PNCK; conditions: at 1 µM
T13 sequence (Q6P2M8 whole entry): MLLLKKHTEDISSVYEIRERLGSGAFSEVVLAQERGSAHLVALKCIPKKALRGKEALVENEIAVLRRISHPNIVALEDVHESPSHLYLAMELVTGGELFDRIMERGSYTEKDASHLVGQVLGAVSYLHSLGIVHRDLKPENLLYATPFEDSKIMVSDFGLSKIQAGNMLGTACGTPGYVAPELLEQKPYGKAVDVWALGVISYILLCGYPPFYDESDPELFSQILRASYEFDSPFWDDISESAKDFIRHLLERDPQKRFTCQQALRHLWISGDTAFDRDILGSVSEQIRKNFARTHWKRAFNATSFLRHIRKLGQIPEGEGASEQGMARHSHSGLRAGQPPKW

[31] = biological target: T13, Calcium/calmodulin-dependent protein kinase type 1B; test: Selectivity interaction (NanoBRET assay (HEK293T cells)) EUB0000312b PNCK
[32] = biological target: Mitogen-activated protein kinase 9 (Homo sapiens, UniProt P45984); test: Selectivity interaction (KinomeScan (DiscoverX)) EUB0000312b MAPK9; conditions: at 1 µM
[33] = biological target: T14, Epithelial discoidin domain-containing receptor 1 (Homo sapiens, UniProt Q08345); test: Selectivity interaction (KinomeScan (DiscoverX)) EUB0000312b DDR1; conditions: at 1 µM
T14 sequence (Q08345 whole entry, the tested form may be a part): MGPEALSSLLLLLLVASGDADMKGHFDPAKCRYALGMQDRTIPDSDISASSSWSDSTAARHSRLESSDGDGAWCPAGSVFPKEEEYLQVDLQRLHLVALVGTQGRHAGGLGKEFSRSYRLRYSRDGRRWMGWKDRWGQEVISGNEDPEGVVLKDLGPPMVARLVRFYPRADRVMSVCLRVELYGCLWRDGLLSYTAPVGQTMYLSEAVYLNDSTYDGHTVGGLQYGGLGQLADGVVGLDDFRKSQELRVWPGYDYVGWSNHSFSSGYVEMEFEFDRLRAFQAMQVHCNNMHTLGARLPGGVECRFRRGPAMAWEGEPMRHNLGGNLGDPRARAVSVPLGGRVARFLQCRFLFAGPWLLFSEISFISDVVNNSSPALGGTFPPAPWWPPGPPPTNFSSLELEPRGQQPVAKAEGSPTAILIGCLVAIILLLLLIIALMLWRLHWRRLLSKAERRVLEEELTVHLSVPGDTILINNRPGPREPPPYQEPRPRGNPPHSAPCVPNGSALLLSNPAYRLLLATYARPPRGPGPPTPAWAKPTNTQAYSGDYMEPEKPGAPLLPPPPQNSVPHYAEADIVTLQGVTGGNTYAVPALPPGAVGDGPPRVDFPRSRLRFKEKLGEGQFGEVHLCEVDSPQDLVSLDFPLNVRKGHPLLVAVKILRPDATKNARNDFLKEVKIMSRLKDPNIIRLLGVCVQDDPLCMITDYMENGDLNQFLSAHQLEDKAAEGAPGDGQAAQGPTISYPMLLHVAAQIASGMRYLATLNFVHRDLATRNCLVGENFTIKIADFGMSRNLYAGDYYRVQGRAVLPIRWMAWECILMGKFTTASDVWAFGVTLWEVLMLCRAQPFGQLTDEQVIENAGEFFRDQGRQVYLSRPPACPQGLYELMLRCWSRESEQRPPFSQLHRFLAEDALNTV

[34] = biological target: T14, Epithelial discoidin domain-containing receptor 1; test: Selectivity interaction (NanoBRET assay (HEK293T cells)) EUB0000312b DDR1
[35] = biological target: T15, Tyrosine-protein kinase JAK1 (Homo sapiens, UniProt P23458); test: Selectivity interaction (KinomeScan (DiscoverX)) EUB0000312b JAK1@kinase 1; conditions: at 1 µM
T15 sequence (P23458 whole entry): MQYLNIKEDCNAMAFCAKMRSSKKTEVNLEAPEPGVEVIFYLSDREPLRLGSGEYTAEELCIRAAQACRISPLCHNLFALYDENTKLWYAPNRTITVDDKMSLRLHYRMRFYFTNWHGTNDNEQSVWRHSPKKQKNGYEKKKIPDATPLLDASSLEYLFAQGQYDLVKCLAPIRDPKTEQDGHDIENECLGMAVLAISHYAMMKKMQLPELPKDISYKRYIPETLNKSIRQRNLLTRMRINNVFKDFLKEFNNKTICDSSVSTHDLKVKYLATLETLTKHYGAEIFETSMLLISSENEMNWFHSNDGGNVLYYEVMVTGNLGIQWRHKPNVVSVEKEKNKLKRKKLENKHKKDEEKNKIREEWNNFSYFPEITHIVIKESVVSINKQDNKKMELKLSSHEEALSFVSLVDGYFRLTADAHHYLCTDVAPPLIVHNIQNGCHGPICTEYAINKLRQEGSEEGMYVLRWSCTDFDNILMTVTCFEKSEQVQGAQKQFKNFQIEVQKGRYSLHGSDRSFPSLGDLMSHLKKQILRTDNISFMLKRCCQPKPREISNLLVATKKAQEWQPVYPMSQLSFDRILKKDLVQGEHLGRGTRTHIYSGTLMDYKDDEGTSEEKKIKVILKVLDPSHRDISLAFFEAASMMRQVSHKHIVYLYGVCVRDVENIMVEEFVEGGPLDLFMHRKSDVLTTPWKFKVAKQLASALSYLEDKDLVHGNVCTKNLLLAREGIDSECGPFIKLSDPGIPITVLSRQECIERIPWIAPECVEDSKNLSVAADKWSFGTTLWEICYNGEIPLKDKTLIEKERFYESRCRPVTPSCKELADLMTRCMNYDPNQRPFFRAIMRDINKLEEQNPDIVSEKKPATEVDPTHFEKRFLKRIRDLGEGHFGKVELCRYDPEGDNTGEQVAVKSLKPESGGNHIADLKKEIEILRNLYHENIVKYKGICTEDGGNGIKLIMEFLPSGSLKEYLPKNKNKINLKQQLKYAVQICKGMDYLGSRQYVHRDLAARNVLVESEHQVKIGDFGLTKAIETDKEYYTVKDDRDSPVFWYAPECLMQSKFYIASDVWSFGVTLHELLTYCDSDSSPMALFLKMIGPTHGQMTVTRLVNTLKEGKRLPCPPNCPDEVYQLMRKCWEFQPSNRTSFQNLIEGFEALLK

[36] = biological target: T15, Tyrosine-protein kinase JAK1; test: Selectivity interaction (NanoBRET assay (HEK293T cells)) EUB0000312b JAK1@kinase 1
[37] = biological target: T16, Phosphatidylinositol 4,5-bisphosphate 3-kinase catalytic subunit alpha isoform (Homo sapiens, UniProt P42336); test: Selectivity interaction (KinomeScan (DiscoverX)) EUB0000312b PIK3CA; conditions: at 1 µM
[38] = biological target: T16, Phosphatidylinositol 4,5-bisphosphate 3-kinase catalytic subunit alpha isoform; test: Selectivity interaction (NanoBRET assay (HEK293T cells)) EUB0000312b PIK3CA

- % of control [1]: 0%
- Kd [2]: > 10 µM
- % of control [3]: 0%
- % of control [4]: 4.9%
- Kd [5]: > 10 µM
- % of control [6]: 0%
- % of control [7]: 0%
- Kd [8]: > 10 µM
- % of control [9]: 1.7%
- Kd [10]: > 10 µM
SMILES: CCCCN(Cc1ccccc1)C(=O)c1ccc(S(=O)(=O)Nc2ccccc2)cc1

- Ki [11]: 2.18 µM
- Ki [12]: 1.67 µM
- Ki [13]: > 10 µM
- Ki [14]: > 10 µM
- Ki [15]: > 10 µM
- Ki (Mu-type opioid receptor): 4.52 µM
- % of control [16]: > 95%
- IC50 [17]: > 10 µM
SMILES: CN1CCN(C(=O)C(C)(C)c2ccc(C(=O)Nc3cn4cc(-c5cc(C(C)(C)C)cc(C(C)(C)C)c5)ccc4n3)cc2)CC1 [T3-CLK-N]

- % of control [18]: 0%
- Kd [19]: > 10 µM
- % of control [20]: 0%
- Kd [21]: > 10 µM
- % of control [22]: 0%
- Kd [23]: > 10 µM
- % of control [24]: 0%
- Kd [25]: > 10 µM
- % of control [26]: 0%
- Kd [27]: > 10 µM
- % of control [28]: 8.6%
- Kd [29]: > 10 µM
SMILES: O=C(NCc1ccccc1)c1ccc(S(=O)(=O)NCc2ccccc2)cc1

- % of control [30]: 39.5%
- IC50 [31]: > 20 µM
- % of control [32]: 39.6%
- % of control [33]: 36.7%
- IC50 [34]: > 20 µM
- % of control [35]: 38.6%
- IC50 [36]: > 20 µM
- % of control [37]: 33.9%
- IC50 [38]: > 20 µM
SMILES: Cc1cnc(-c2cc(Cl)ccc2F)cc1-n1c(=O)n(CC(N)=O)c2cnccc21 [TP-008]
